Assays:
[1] = system: RBCs; assay: Recovery of RBCs 24 hours after sonoporation (toxicity); type: cell-based, pig or human; conditions: 200 mM trehalose, microbubbles, 2.5-MHz ultrasound 70 seconds
Description: (§1) In vitro experiments have been performed to validate the methods and systems described herein. Briefly, a 0.5 mL solution containing pig or human RBCs, 200 mM trehalose, and microbubbles was placed in a conical tube and sonicated with a 2.5-MHz clinical ultrasound probe for 70 seconds (Philips 4-1 on a Verasonics Vantage 64LE ultrasound imaging system). […] Following sonication, samples were dried (FIG. 5A-B), frozen at −80° C., or freeze-dried for 1 week. Upon thawing or rehydration, the percentage of structurally intact RBCs was counted (FIG. 6A-B). Cell recovery rates of up to 85% were achieved after freezing/thawing, compared to less than 40% without sonoporation. Cell recovery rates of up to 12% were achieved after freeze-drying/rehydration, compared to 0% without sonoporation. Although the recovery is still low, this was believed to be a significant result given that not a single RBC was recovered from freeze-dried samples that had not been treated with sonoporation. […] The microfluidic sonoporation device can further improve the recovery rates by enabling consistent and precise trehalose delivery to each cell. This device is also effective in processing RBCs for long-term preservation in a frozen or freeze-dried state.

[2] = system: RBCs; assay: Recovery of RBCs following freezing/thawing; type: cell-based, pig or human; conditions: for cell recovery rate (structurally intact RBCs) after freezing/thawing: frozen at -80° C.
Description: as §1

[3] = system: RBCs; assay: Recovery of RBCs following freeze-drying/rehydration; type: cell-based, pig or human
Description: as §1

[4] = system: red blood cells; assay: Microscopy of dried red blood cells after rehydration; type: cell-based; conditions: after loading with trehalose; confocal image
Description: FIG. 5A-B includes microscopic images of dried red blood cells without trehalose (A) and after loading with trehalose (B).
as §1

## OC[C@H]1O[C@H](O[C@H]2O[C@H](CO)[C@@H](O)[C@H](O)[C@H]2O)[C@H](O)[C@@H](O)[C@@H]1O [trehalose]
[1]
  cell recovery 24 hours after sonication: > 95%
[2]; 200 mM trehalose with sonoporation
  cell recovery rate (structurally intact RBCs) after freezing/thawing: up to 85%
[2]; after small changes to the cell media composition, frozen cells
  recovery rate for frozen cells: above 85%
[2]; without sonoporation
  cell recovery rate (structurally intact RBCs) after freezing/thawing: less than 40%
[3]; 200 mM trehalose with sonoporation, freeze-dried for 1 week
  cell recovery rate (structurally intact RBCs) after freeze-drying/rehydration: up to 12%
[3]; after small changes to the cell media composition and freeze-drying parameters
  recovery rate after freeze-drying, improved technique: above 12%
[3]; initial experiments (data not shown)
  recovery after freeze-drying, initial experiments: less than 8%
[3]; without sonoporation, freeze-dried
  cell recovery rate (structurally intact RBCs) after freeze-drying/rehydration: 0%
[4]
  shape of dried blood cells after rehydration: maintain shape after rehydration
